We go through five compounds from patent publication US20240315987A1, “ORAL CO[…] COMBINED WITH S[…] I[…] FOR USE IN THE TREATMENT, CONTROL OR PREVENTION OF DEPRESSIVE DISORDERS” (N[…] LTD., priority 2020, published 2024).

For orientation: IC50 means the concentration that gives 50% inhibition.

Like-named read-outs stand apart in the source and are kept apart here.

The target in data set [1] is T1, α7 nicotinic acetylcholine receptor (Rattus norvegicus, UniProt Q05941).
T1 construct: expressed in transfected cells; host or cells: KXa7R1 cell line (HEK293)
T1 sequence (Q05941 23-502): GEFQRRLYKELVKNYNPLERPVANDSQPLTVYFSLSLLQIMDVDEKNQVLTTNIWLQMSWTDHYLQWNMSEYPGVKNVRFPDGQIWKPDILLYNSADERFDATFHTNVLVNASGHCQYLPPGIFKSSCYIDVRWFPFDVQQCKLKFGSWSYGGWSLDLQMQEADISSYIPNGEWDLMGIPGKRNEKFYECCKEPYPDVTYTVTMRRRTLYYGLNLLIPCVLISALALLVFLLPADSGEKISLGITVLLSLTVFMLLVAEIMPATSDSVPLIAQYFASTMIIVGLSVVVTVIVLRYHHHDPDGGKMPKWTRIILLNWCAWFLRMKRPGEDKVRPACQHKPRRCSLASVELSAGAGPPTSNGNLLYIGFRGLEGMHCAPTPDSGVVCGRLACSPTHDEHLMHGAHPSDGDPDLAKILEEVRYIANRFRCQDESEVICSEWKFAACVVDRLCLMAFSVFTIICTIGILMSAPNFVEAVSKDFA
Particulars: cited from earlier work.

For data set [2] the following is noted: cited from earlier work.
A further data set concerns mice. Particulars: cited from earlier work.
The subject of data set [3] is depressive disorder patients. Kind of data set: Example 6: subcut/IV ketamine with supplemental oral dose, then oral only. The class given is in vivo, human. On the procedure: Patients (n=12 patients) were administered a ketamine-based treatment comprising a subcut/IV ketamine dose with a supplemental oral dose (as described herein).
In data set [4] the test system is Major Depression Disorder (MDD) and Treatment-resistant depression (TRD). As to conditions: single IV administration, subanaesthetic dose 0.5 mg/kg; cited from earlier work.
In data set [5] the test system is Treatment Resistant Depression (TRD). Kind of data set: Example 5 pilot study: combined subcutaneous/IV and oral ketamine in TRD patients. Type of data set: in vivo, human. As to conditions: for mean MADRS reduction: TRD patients. On the procedure:
Six patients diagnosed with Treatment Resistant Depression (TRD) received a combined ketamine treatment as outlined below. Their mean age was 53.1 (SD: 9.3). Five of the patients had previously attempted suicide and been admitted to a psychiatric unit. Three patients had received electroconvulsive therapy (ECT).
Five of the patients received oral ketamine of dose range 120-240 mg, (for example three to six capsules of 40 mg/day as described herein), once a week, four days after ketamine subcutaneous (0.5 mg-1.0 mg/kg) was administered once a week.
One patient received ketamine intravenously once a week and oral ketamine twice a week of dose 240 mg (for example, six capsules of 40 mg/day as described herein) each time.
The patients received on average 30.8 weeks (SD:7.7) ketamine subcutaneous-oral treatment and 10.6 weeks (SD: 6.7) ketamine IV-oral treatment.
This pilot study was conducted to explore the safety, tolerability, and potential clinical effectiveness of a treatment with repeated, low-dose oral ketamine capsules.

The test system of the next data set is depression. As to conditions: oral, 2019 systematic review; cited from earlier work.

In the case of `NC1(c2ccccc2Cl)CCCCC1=O` (stereo not shown) [norketamine], the “potency as negative allosteric modulator” value in data set [1] (KXa7R1 cell line) was “subanaesthetic and nanomolar potencies”. In addition, the “plasma levels of metabolite relative to ketamine” value in data set [2] (following oral administration of ketamine) is recorded as “three times higher than ketamine”.

In the case of `NC1(c2ccccc2Cl)CCCC(O)C1=O` (stereo not shown) [hydroxynorketamine], in data set [1] (KXa7R1 cell line), the “potency as negative allosteric modulator” value was “subanaesthetic and nanomolar potencies”.

Regarding `N[C@@]1(c2ccccc2Cl)CCC[C@@H](O)C1=O` [(2R,6R)-HNK], the antidepressant-like effects entry with mice is reported as “ketamine-type antidepressant-like effects”.

As for `CNC1(c2ccccc2Cl)CCCCC1=O` (stereo not shown) [ketamine, Ketamine], the “activity at the same concentrations” value in data set [1] (KXa7R1 cell line, <1 μM) is “inactive”. The “response to oral ketamine after stopping initial IV or subcutaneous ketamine treatment” value in data set [3] (especially oral twice a week at 160-240 mg) is “respond very well”. The “remission levels after switch to oral only treatment” value in data set [3] (n=12 patients, oral only) was “maintained their remission levels at the same level as when administered the combination treatment”. In addition, the “remission via MADRS scores” value in data set [3] (n=12 patients, subcut/IV ketamine dose with supplemental oral dose) is reported as around 50%. In data set [4], the “duration of antidepressant effect” value was 4 to 7 days and the “time to antidepressant action” value was at most 24 h. In addition, the Bioavailability in data set [2] (intranasally) is listed as 8-50%. The “time to peak plasma concentrations” value in data set [2] (intravenously) is recorded as “within a minute”. Further, the Bioavailability in data set [2] (oral route) is 17-20%. For the same compound, in data set [2] (orally), the “time to peak plasma concentrations” value is 30 min. Further, the Bioavailability entry in data set [2] (rectally) is “up to 30%”. For the same compound, the Bioavailability entry in data set [2] (sublingually) is “up to 30%”. Also, the “response and tolerability of the treatment regimens” value in data set [5] (after 45 to 75 minutes after dosing) is “good response and tolerability in all patients”. In data set [5] (between first and last treatment, subcutaneous-oral ketamine treatment), the “mean MADRS reduction” value is −5.7 (SD: 11.0). The “mean MADRS reduction” value in data set [5] (intravenous-oral ketamine treatment) is −5.7 (SD: 10.0). Besides, the “duration of significant improvement of cognition” value in data set [5] (one patient, ketamine IV once a week and oral ketamine twice a week 240 mg) is 24 to 36 h. The “severity of adverse events” value in data set [5] (repeated, low-dose oral ketamine capsules) is “Most adverse events were moderate and self-limiting”. In data set [5] (six TRD patients), the “ketamine cravings or urge to use beyond the prescribed period” value was “No participant reported ketamine cravings”; the “onset of moderate discomforts or moderate increase of pre-existing discomforts, reports” value was determined as 32 times; the “positive effects (reduction of suicidal thoughts, improved mood, cognition, increased energy)” value is “Most of the participants reported positive effects”; the “premature discontinuation of treatment” value was “none of the participants discontinued treatment prematurely”. Besides, in data set [5] (six TRD patients), the serious side effects entry is reported as “No serious side effects occurred” and the “tolerability of treatment with oral ketamine” value is “well-tolerated”. In addition, in the data set on depression, the antidepressant effects result is “significant antidepressant effects” and the tolerability entry is recorded as “good overall tolerability”.

Take `NC1(c2ccccc2Cl)CCC=CC1=O` (stereo not shown) [dehydronorketamine]: in data set [1] (KXa7R1 cell line (HEK293 cells transfected with rat nicotinic acetylcholine receptor genes)), the half-maximal inhibitory concentration (IC50) is 55 nM. Further, in data set [1] (KXa7R1 cell line), the “potency as negative allosteric modulator” value is “subanaesthetic and nanomolar potencies”.
